Here are results for two compounds from US6787567B2, “Fungicidal active ingredients combinations” (Bayer Aktiengesellschaft, priority 2000, dated 2004).

In this assay the test system is Plasmopara viticola. Put plainly: Plasmopara test (grapevine)/protective. Format: in vivo, Plasmopara viticola on grapevine. The settings on record: protective, evaluation 6 days after inoculation. As for the experimental part:
Plasmopara Test (Grapevine)/Protective
Solvent: 49 parts by weight of acetone
Emulsifier: 1 part by weight of alkyl-aryl polyglycol ether
To produce a suitable preparation of active compound, 1 part by weight of active compound or active compound combination is mixed with the stated amounts of solvent and emulsifier, and the concentrate is diluted with water to the desired concentration, or a commercially available formulation of active compound or active compound combination is diluted with water to the desired concentration.
To test for protective activity, young plants are sprayed with the preparation of active compound at the stated application rate. After the spray coating has dried on, the plants are inoculated with an aqueous spore suspension of Plasmopara viticola and then remain in an incubation cabin at approximately 20° C. and 100% relative atmospheric humidity for 1 day. The plants are then placed in a greenhouse at approximately 21° C. and approximately 90% atmospheric humidity for 4 days. The plants are then moistened and then placed in an incubation cabin for 1 day.
Evaluation is carried out 6 days after the inoculation. 0% means an efficacy which corresponds to that of the control, whereas an efficacy of 100% means that no infection is observed.

As for `[Cl-].[Cu+2].[Cu+2].[OH-].[OH-].[OH-]` [Copper oxychloride (XXXXVIa), copper oxychloride], the “% efficacy” value (application rate 100 g/ha) is on record as 26%. Take `CON=C(C(=O)NCCc1ccc(OC)c(OC)c1)c1ccc2c(c1)CCCC2` [Ib]: under “application rate 10 g/ha”, the “% efficacy” value amounted to 66%.
